The test concerns mice. Kind of test: Neuropharmacological Assay (SmartCube): automated behavioral signature of compound-treated mice compared with a database of reference drug classes. Format: in vivo. Particulars: for minimal effective dose: Mus musculus, ip; for minimal effective dose / MED (minimal effective dose) / MED: i.p., that dose is shown. The essentials:
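Probabilities reflect how closely the digitally recorded behavioural signature at 3.0 mg/kg i.p. matched each reference class (antipsychotic, anxiolytic, antidepressant etc.). Dosing occurred 15 min before testing. Minimal effective dose was the dose giving 45% or more total activity.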

[1] abbreviates: dose having 45% or more total activity in SmartCube, if only one dose was tested, read-out: MED (minimal effective dose).
Setting [2] is: probability that activity matches this class of agents, 3.0 mg/kg i.p., 15 min before test.
Where [3] appears, read: dose having 45% or more total activity in SmartCube, if only one dose was tested, hydrochloride.
The mark [4] stands for this setting: probability that activity matches this class of agents, 3.0 mg/kg i.p., 15 min before test, hydrochloride, 3 mg/kg.
[5] abbreviates: SmartCube probability class, 3.0 mg/kg dose, i.p. 15 min before the behavioral test.
The mark [6] stands for this setting: SmartCube probability class, 3.0 mg/kg dose, i.p. 15 min before the behavioral test, hydrochloride, 3 mg/kg.
Where [7] appears, read: minimal effective dose: dose having 45% or more total activity in SmartCube, if only one dose was tested, hydrochloride.
Setting [8] is: minimal effective dose: dose having 45% or more total activity in SmartCube, if only one dose tested, read-out: MED.
Where [9] appears, read: SmartCube class probability, 3.0 mg/kg i.p., 15 min before test.
The mark [10] stands for this setting: SmartCube class probability, 3.0 mg/kg i.p., 15 min before test, hydrochloride, 3 mg/kg.

Structures can show the parent of a compound that is named as a salt. Where two headings read alike, the source gives them in different places.

With `CNC1CCc2sc(Cl)cc2C1` (stereo not drawn) [Compound 97, 2-chloro-N-methyl-4,5,6,7-tetrahydrobenzothiophen-5-amine hydrochloride], under setting [1], the minimal effective dose was found to be 1 mg/kg. Besides, under setting [2], the AD result is “++++ (≥74%)”, the AG entry is recorded as “ND (^ <4%)”, the AN entry is “ND (^ <4%)” and the AP entry was “ND (^ <4%)”. Besides, under setting [2], the AX result is listed as “ND (^ <4%)”, the CE result is recorded as “ND (^ <4%)”, the HL result is on record as “ND (^ <4%)” and the MS result is listed as “ND (^ <4%)”. Moreover, under setting [2], the PS result is given as “ND (^ <4%)”, the SH result is reported as “ND (^ <4%)” and the UK result is “ND (^ <4%)”.
Turning to `CN(C)C1CCc2ccsc2C1.Cl` (single isomer, unassigned) [Compound 15, N,N-dimethyl-4,5,6,7-tetrahydrobenzothiophen-6-amine hydrochloride], the “MED (minimal effective dose)” value under setting [3] is 0.3 mpk. Further, under setting [2], the AD entry was “ND (^ <4%)”, the AG entry is “ND (^ <4%)”, the AN result is on record as “ND (^ <4%)” and the HL entry is on record as “ND (^ <4%)”. Under setting [2], the MS entry is on record as “ND (^ <4%)”, the PS result is listed as “ND (^ <4%)”, the SH result was “ND (^ <4%)” and the UK result is given as “ND (^ <4%)”. For the same compound, under setting [4], the AP entry was “+ (≥4%)”, the AX entry is “+++ (≥49%)” and the CE result is reported as “++ (≥24%)”.
With `CCc1scc2c1CC(NC)CC2` (single isomer, unassigned) [Compound 115, 3-ethyl-N-methyl-4,5,6,7-tetrahydro-2-benzothiophen-5-amine hydrochloride], under setting [1], the minimal effective dose came to 3 mg/kg. Under setting [2], the AD entry is listed as “ND (^ <4%)”, the AG entry is recorded as “ND (^ <4%)”, the AN result was “ND (^ <4%)” and the AX result is recorded as “ND (^ <4%)”. Under setting [2], the CE entry was “ND (^ <4%)”, the HL entry is reported as “ND (^ <4%)”, the MS result is listed as “ND (^ <4%)” and the PS result is given as “ND (^ <4%)”. Moreover, under setting [2], the SH entry is on record as “ND (^ <4%)” and the UK entry is “ND (^ <4%)”. For the same compound, under setting [4], the AP result was “++++ (≥74%)”.
Take `CNC1COc2c(C(F)(F)F)csc2C1` (single isomer, unassigned) [Compound 310, N-methyl-3-(trifluoromethyl)-6,7-dihydro-5H-thieno[3,2-b]pyran-6-amine hydrochloride]: under setting [5], the AD entry is reported as “ND (^ <4%)”, the AG entry was “ND (^ <4%)”, the AN result is reported as “ND (^ <4%)” and the AP entry is “ND (^ <4%)”. Moreover, under setting [5], the AX entry is “ND (^ <4%)”, the CE entry is “ND (^ <4%)”, the HL entry is “ND (^ <4%)” and the MS entry was “ND (^ <4%)”. Also, under setting [5], the PS result is “ND (^ <4%)” and the SH result is reported as “ND (^ <4%)”. For the same compound, the UK result under setting [6] was “++ (≥24%)”. Moreover, the MED under setting [7] is reported as >3 mpk.
As for `N#Cc1scc2c1CC(N)CC2` (single isomer, unassigned) [Compound 313, 6-amino-4,5,6,7-tetrahydro-2-benzothiophene-1-carbonitrile hydrochloride], under setting [5], the AD result was “ND (^ <4%)”, the AG result is recorded as “ND (^ <4%)”, the AN result is “ND (^ <4%)” and the AP entry was “ND (^ <4%)”. For the same compound, under setting [5], the AX entry was “ND (^ <4%)”, the CE entry is reported as “ND (^ <4%)”, the HL entry is on record as “ND (^ <4%)” and the MS entry is listed as “ND (^ <4%)”. Under setting [5], the PS entry is on record as “ND (^ <4%)” and the SH result is recorded as “ND (^ <4%)”. Besides, the UK result under setting [6] is given as “+ (≥4%)”. Under setting [7], the MED is given as >3 mpk.
As for `NC1COc2c(C3CC3)csc2C1` (single isomer, unassigned) [Compound 329, 3-cyclopropyl-6,7-dihydro-5H-thieno[3,2-b]pyran-6-amine hydrochloride], the minimal effective dose (minimal effective dose: dose having 45% or more total activity in SmartCube, if only one dose was tested, read-out: MED) was < 3 mg/kg. Besides, under setting [5], the AG result is on record as “ND (^ <4%)”, the AN entry is listed as “ND (^ <4%)”, the AP entry is “ND (^ <4%)” and the AX entry is “ND (^ <4%)”. Besides, under setting [5], the CE entry is “ND (^ <4%)”, the HL entry is given as “ND (^ <4%)”, the MS entry is given as “ND (^ <4%)” and the PS result is reported as “ND (^ <4%)”. For the same compound, the SH result under setting [5] is reported as “ND (^ <4%)”. Also, under setting [6], the AD result is given as “++++ (≥74%)” and the UK result is “ND (^ <4%)”.
As for `CNC1CCc2c(C)sc(C)c2C1` (single isomer, unassigned) [Compound 30, N, 1,3-trimethyl-4,5,6,7-tetrahydro-2-benzothiophen-5-amine hydrochloride], the “MED (minimal effective dose)” value under setting [3] was 0.3 mpk. Also, under setting [2], the AD entry is “ND (^ <4%)”, the AG entry is “ND (^ <4%)”, the AN result is “ND (^ <4%)” and the CE result is listed as “ND (^ <4%)”. Under setting [2], the HL result is reported as “ND (^ <4%)”, the MS entry is given as “ND (^ <4%)”, the PS entry is reported as “ND (^ <4%)” and the UK result is “ND (^ <4%)”. In addition, under setting [4], the AP result is recorded as “++++ (≥74%)”, the AX result is given as “ND (^ <4%)” and the SH result is “+ (≥4%)”.
For `Cc1csc2c1OCC(N)C2` (stereo not drawn) [Compound 228, 3-methyl-6,7-dihydro-5H-thieno[3,2-b]pyran-6-amine hydrochloride], the minimal effective dose under setting [8] was 1 mg/kg. For the same compound, under setting [9], the AD result is recorded as “ND (^ <4%)”, the AG result is “ND (^ <4%)”, the AN result is “ND (^ <4%)” and the AP entry is on record as “ND (^ <4%)”. Under setting [9], the AX result is “ND (^ <4%)”, the CE entry is listed as “ND (^ <4%)”, the HL entry is “ND (^ <4%)” and the MS result is listed as “ND (^ <4%)”. Under setting [9], the PS result is “ND (^ <4%)”, the SH result is listed as “ND (^ <4%)” and the UK entry is on record as “ND (^ <4%)”.
On to `Cc1scc2c1CCC(N)C2` (single isomer, unassigned) [Compound 165, 1-methyl-4,5,6,7-tetrahydro-2-benzothiophen-5-amine hydrochloride], for which, under setting [9], the AG result is reported as “ND (^ <4%)”, the AN result was “ND (^ <4%)”, the AP entry is “ND (^ <4%)” and the AX entry is reported as “ND (^ <4%)”. For the same compound, under setting [9], the CE entry is reported as “ND (^ <4%)”, the MS result is recorded as “ND (^ <4%)”, the PS result was “ND (^ <4%)” and the SH result is “ND (^ <4%)”. In addition, the UK result under setting [9] was “ND (^ <4%)”. Also, under setting [10], the AD result was “ND (^ <4%)” and the HL result is “++++ (≥74%)”. The MED (minimal effective dose: dose having 45% or more total activity in SmartCube, if only one dose tested) was 3 mpk.
Regarding `CNC1COc2c(F)csc2C1` (stereo not drawn) [Compound 225, 3-fluoro-N-methyl-6,7-dihydro-5H-thieno[3,2-b]pyran-6-amine hydrochloride], the minimal effective dose under setting [8] was < 3 mg/kg. For the same compound, under setting [9], the AD result is “ND (^ <4%)”, the AG result is “ND (^ <4%)”, the AN entry is “ND (^ <4%)” and the AP entry is “++++ (≥74%)”. In addition, under setting [9], the AX result is reported as “ND (^ <4%)”, the CE entry was “ND (^ <4%)”, the HL result was “ND (^ <4%)” and the MS result is on record as “ND (^ <4%)”. In addition, under setting [9], the PS entry was “ND (^ <4%)”, the SH result is recorded as “ND (^ <4%)” and the UK entry is “ND (^ <4%)”.
Turning to `CC1(N)CCc2ccsc2C1` (single isomer, unassigned) [Compound 112, 6-methyl-5,7-dihydro-4H-benzothiophen-6-amine hydrochloride], the “MED (minimal effective dose)” value under setting [3] was >3 mpk. Further, under setting [2], the AG result is “ND (^ <4%)”, the AN entry is reported as “ND (^ <4%)”, the AP entry is “ND (^ <4%)” and the CE entry is given as “ND (^ <4%)”. In addition, under setting [2], the HL result is “ND (^ <4%)”, the MS result is “ND (^ <4%)”, the SH result is given as “ND (^ <4%)” and the UK result was “ND (^ <4%)”. Moreover, under setting [4], the AD result was “+ (≥4%)”, the AX entry was “+ (≥4%)” and the PS entry is “ND (^ <4%)”.
As for `NC1COc2ccsc2C1` (single isomer, unassigned) [Compound 136, 6,7-dihydro-5H-thieno[3,2-b]pyran-6-amine hydrochloride], under setting [3], the “MED (minimal effective dose)” value is >3 mpk. Besides, under setting [2], the AD entry was “ND (^ <4%)”, the AG result was “ND (^ <4%)”, the AN result is “ND (^ <4%)” and the AX entry is on record as “ND (^ <4%)”. Also, under setting [2], the CE result is recorded as “ND (^ <4%)”, the HL result is on record as “ND (^ <4%)”, the MS entry is “ND (^ <4%)” and the PS result was “ND (^ <4%)”. Besides, under setting [4], the AP entry is listed as “ND (^ <4%)”, the SH result was “ND (^ <4%)” and the UK result was “+ (≥4%)”.
